The values below come from US5827720A, “α-glucosidase, and a process for producing the same” (priority 1995, dated 1998).

In one test the test system is α-glucosidase (the present enzyme) from Bacillus sp. KS-108a (FERM BP-5337). As to the kind of experiment: Km value by Lineweaver-Burk plotting. It is filed as biochemical. As to conditions: pH 7.0, 37° C., read-out: Km (PNPG as substrate). The method, then: The measurement of the titer of the present enzyme was carried out in the following manner. The amount of the enzyme causing 1 μ mol paranitrophenol per minute to be released from PNPG was assumed as 1 U of the enzyme. (Preparation of a substrate solution, a buffer, a reaction terminating solution, and an enzyme diluent)
(§1) First, 0.25 ml of Solution 1 and 0.5 ml of Solution 2 were mixed and pre-incubated at 37° C. for 5 minutes, and then the solution was mixed with 0.25 ml enzyme solution (about 0.005 to 0.03 U/ml) and reacted accurately for 15 minutes at 37° C.
(§2) Then, the reaction was stopped by adding 1 ml of Solution 3 to the reaction solution and the paranitrophenol thus formed was colored. This sample was measured for absorbance at 400 nm in a spectrophotometer (U-2000A, Hitachi Ltd.).
As a reminder, the Km is the concentration of substrate that gives half-maximal velocity. Consider `O=[N+]([O-])c1ccc(O[C@H]2O[C@H](CO)[C@@H](O)[C@H](O)[C@H]2O)cc1` [PNPG, paranitrophenyl-α-D-glucopyranoside], for which the Michaelis-Menten constant (Km) came to 55 µM.

The test system is the same in a further test.
Assay: not given
Conditions: 0.01 ml of 22 mM inhibitor added to 0.1 ml enzyme in 100 mM HEPES-NaOH pH 7.0 with 0.2% BSA, 25° C., 1 hour; then diluted 100-fold, activity on PNPG; control = 100. Format: biochemical. The method, then: as §1, §2
The effect of treatment with various inhibitors was evaluated in the following manner.
0.1 ml of 0.0667 mg/ml of the present enzyme in 100 mM HEPES-NaOH buffer, pH 7.0 containing 0.2% BSA was added to 0.01 ml of 22 mM inhibitor (1.1% in the case of a surfactant as inhibitor) and incubated at 25° C. for 1 hour. Then, the sample was diluted 100-fold with 10 mM potassium phosphate buffer (pH 7.0) containing 0.2% BSA, and the remaining activity was determined in the same manner as above in titer measurement.
Consider `OCCS` [2-mercaptoethanol], for which the “remaining activity (%)” value worked out at 99.6%.

With `O=C(O)c1ccccc1[N+](=O)[O-]` [2-nitrobenzoic acid], the “remaining activity (%)” value stood at 102.7%.

As for `O[C@H](CS)[C@H](O)CS` (racemic) [dithiothreitol], the “remaining activity (%)” value is recorded as 105.4%.

As for `c1cnc2c(c1)ccc1cccnc12` [o-phenanthroline], the “remaining activity (%)” value is 99.4%.

For `CCN1C(=O)C=CC1=O` [N-ethylmaleimide], the “remaining activity (%)” value is given as 107.5%.

With `[N-]=[N+]=[N-]` [sodium azide], the “remaining activity (%)” value was 105.0%.

For `O=C(O)c1cc[c]([Hg][Cl])cc1` [PCMB, p-chloromercuribenzoic acid], the “remaining activity (%)” value is given as 97.7%.

The same test, now with this note: 22 mM inhibitor stock, 25° C., 1 hour.
As for `CCN1C(=O)C=CC1=O` [N-ethylmaleimide], the “effect of treatment with inhibitor on the enzyme (in words)” value is listed as “not affected”.

For the molecule `O=C(O)c1cc[c]([Hg][Cl])cc1` [PCMB, p-chloromercuribenzoic acid], the “effect of treatment with inhibitor on the enzyme (in words)” value is on record as “not affected”.

Staying with this test, now noted: pH 7.
Regarding `O=C(O)CI` [monoiodoacetic acid], the “remaining activity (%)” value stood at 98.5%.

On to `O=C(O)CN(CCN(CC(=O)O)CC(=O)O)CC(=O)O` [EDTA-2Na], for which the “remaining activity (%)” value is listed as 106.4%.

In the case of `N[C@@H](CCC(=O)N[C@@H](CS)C(=O)NCC(=O)O)C(=O)O` [glutathione], the “remaining activity (%)” value is given as 102.5%.
